Measured values from ChEMBL document CHEMBL1201862, “PubChem BioAssay data set” (2004).
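Tested at 5 concentrations; 48 h exposure; 96-well plates; endpoints linearly interpolated, else capped at highest concentration. GI50: concentration for 50% inhibition of growth.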 Calls of active or inactive are those of the source. Rule as the data show it: active = GI50 up to about 1.1 µM and inactive = higher.

Key:
Assay in all cases: NCI anticancer screen, dose series, 48 h
[1] = test system: 786-0
[2] = test system: A498
[3] = test system: A549
[4] = test system: ACHN
[5] = test system: BT-549
[6] = test system: CAKI-1
[7] = test system: CCRF-CEM
[8] = test system: COLO 205
[9] = test system: DU-145
[10] = test system: HCC 2998
[11] = test system: HCT-116
[12] = test system: HCT-15
[13] = test system: HL-60
[14] = test system: HOP-62
[15] = test system: HOP-92
[16] = test system: HT-29
[17] = test system: Hs-578T
[18] = test system: IGROV-1
[19] = test system: K562
[20] = test system: KM12
[21] = test system: LOX IMVI
[22] = test system: M14
[23] = test system: MCF7
[24] = test system: MDA-MB-231
[25] = test system: MDA-MB-435
[26] = test system: MDA-N
[27] = test system: MOLT-4
[28] = test system: NCI-H226
[29] = test system: NCI-H23
[30] = test system: NCI-H460
[31] = test system: NCI/ADR-RES
[32] = test system: OVCAR-3
[33] = test system: OVCAR-4
[34] = test system: OVCAR-5
[35] = test system: OVCAR-8
[36] = test system: PC-3
[37] = test system: RPMI-8226
[38] = test system: RXF 393
[39] = test system: SF-268
[40] = test system: SF-295
[41] = test system: SF-539
[42] = test system: SK-MEL-28
[43] = test system: SK-MEL-2
[44] = test system: SK-MEL-5
[45] = test system: SK-OV-3
[46] = test system: SN12C
[47] = test system: SNB-19
[48] = test system: SR
[49] = test system: SW-620
[50] = test system: T47D
[51] = test system: TK-10
[52] = test system: U-251
[53] = test system: UACC-257
[54] = test system: UACC-62
[55] = test system: UO-31
[56] = test system: EKVX
[57] = test system: Malme-3M
[58] = test system: SNB-75
[59] = test system: NCI-H522

`CCOC(=O)c1nc2ccc(C(F)(F)F)cc2[nH]c1=O` was tested, and the GI50 [1] was > 100 µM (inactive), the GI50 [2] was > 100 µM (inactive) and the GI50 [3] was > 100 µM (inactive). The GI50 [4] was > 100 µM (inactive), the GI50 [5] was > 100 µM (inactive) and the GI50 [6] was > 100 µM (inactive). For the same compound, the GI50 [7] was > 100 µM (inactive), the GI50 [8] was > 100 µM (inactive) and the GI50 [9] was > 100 µM (inactive). The GI50 [10] was > 100 µM (inactive), the GI50 [11] was > 100 µM (inactive) and the GI50 [12] was over 100 µM. The GI50 [13] was > 100 µM (inactive), the GI50 [14] was > 100 µM (inactive) and the GI50 [15] was > 100 µM (inactive). The GI50 [16] was > 100 µM (inactive), the GI50 [17] was 82 µM (inactive) and the GI50 [18] was > 100 µM (inactive). For the same compound, the GI50 [19] was > 100 µM (inactive), the GI50 [20] was > 100 µM (inactive) and the GI50 [21] was > 100 µM (inactive). The GI50 [22] was > 100 µM (inactive), the GI50 [23] was > 100 µM (inactive) and the GI50 [24] was > 100 µM (inactive). For the same compound, the GI50 [25] was > 100 µM (inactive), the GI50 [26] was > 100 µM (inactive) and the GI50 [27] was > 100 µM (inactive). The GI50 [28] was > 100 µM (inactive), the GI50 [29] was > 100 µM (inactive) and the GI50 [30] was > 100 µM (inactive). The GI50 [31] was > 100 µM (inactive), the GI50 [32] was > 100 µM (inactive) and the GI50 [33] was > 100 µM (inactive). For the same compound, the GI50 [34] was > 100 µM (inactive), the GI50 [35] was > 100 µM (inactive) and the GI50 [36] was > 100 µM (inactive). For the same compound, the GI50 [37] was > 100 µM (inactive), the GI50 [38] was > 100 µM (inactive) and the GI50 [39] was > 100 µM (inactive). For the same compound, the GI50 [40] was > 100 µM (inactive), the GI50 [41] was > 100 µM (inactive) and the GI50 [42] was > 100 µM (inactive). The GI50 [43] was > 100 µM (inactive), the GI50 [44] was > 100 µM (inactive) and the GI50 [45] was > 100 µM (inactive). For the same compound, the GI50 [46] was > 100 µM (inactive), the GI50 [47] was > 100 µM (inactive) and the GI50 [48] was > 100 µM (inactive). For the same compound, the GI50 [49] was > 100 µM (inactive), the GI50 [50] was > 100 µM (inactive) and the GI50 [51] was > 100 µM (inactive). The GI50 [52] was > 100 µM (inactive), the GI50 [53] was > 100 µM (inactive) and the GI50 [54] was > 100 µM (inactive). For the same compound, the GI50 [55] was > 100 µM (inactive).
`COc1ccc(C(=O)C2CC3(CCC2(O)c2ccc(OC)cc2)CC(=O)Nc2ccccc2C3=O)cc1` (centres undefined) was tested, and the GI50 [2] was > 100 µM (inactive), the GI50 [3] was > 100 µM (inactive) and the GI50 [5] was > 100 µM (inactive). The GI50 [6] was > 100 µM (inactive), the GI50 [7] was 4.38 µM (inactive) and the GI50 [8] was 11.7 µM (inactive). The GI50 [9] was > 100 µM (inactive), the GI50 [56] was > 100 µM (inactive) and the GI50 [10] was 79.3 µM (inactive). For the same compound, the GI50 [11] was 28.4 µM (inactive), the GI50 [12] was 5.85 µM and the GI50 [13] was 5.08 µM (inactive). The GI50 [14] was > 100 µM (inactive), the GI50 [15] was 0.5 µM (active) and the GI50 [16] was > 100 µM (inactive). For the same compound, the GI50 [17] was > 100 µM (inactive), the GI50 [18] was > 100 µM (inactive) and the GI50 [19] was > 100 µM (inactive). For the same compound, the GI50 [21] was > 100 µM (inactive), the GI50 [22] was > 100 µM (inactive) and the GI50 [23] was 3.03 µM (inactive). The GI50 [24] was > 100 µM (inactive), the GI50 [25] was > 100 µM (inactive) and the GI50 [26] was > 100 µM (inactive). The GI50 [57] was > 100 µM (inactive), the GI50 [28] was > 100 µM (inactive) and the GI50 [29] was > 100 µM (inactive). For the same compound, the GI50 [30] was 6.75 µM (inactive), the GI50 [31] was > 100 µM (inactive) and the GI50 [32] was > 100 µM (inactive). The GI50 [33] was 1.55 µM (inactive), the GI50 [34] was > 100 µM (inactive) and the GI50 [35] was > 100 µM (inactive). The GI50 [36] was 1.44 µM (inactive), the GI50 [38] was > 100 µM (inactive) and the GI50 [39] was > 100 µM (inactive). For the same compound, the GI50 [40] was > 100 µM (inactive), the GI50 [41] was > 100 µM (inactive) and the GI50 [43] was > 100 µM (inactive). The GI50 [44] was 4.98 µM (inactive), the GI50 [45] was > 100 µM (inactive) and the GI50 [46] was > 100 µM (inactive). The GI50 [58] was 4.4 µM (inactive), the GI50 [48] was > 100 µM (inactive) and the GI50 [49] was > 100 µM (inactive). For the same compound, the GI50 [50] was 0.366 µM (active), the GI50 [51] was > 100 µM (inactive) and the GI50 [52] was 63.7 µM (inactive). The GI50 [53] was > 100 µM (inactive), the GI50 [54] was > 100 µM (inactive) and the GI50 [55] was 18.1 µM (inactive).
For `CN(C)CCn1c(=O)c2ccc(NCCN3CCNCC3)c3c(=O)c4ccccc4n(c1=O)c23`, the GI50 [1] was 0.358 µM (active), the GI50 [2] was 4.15 µM (inactive) and the GI50 [3] was 0.962 µM (active). The GI50 [4] was 1.27 µM (inactive), the GI50 [5] was 7.33 µM (inactive) and the GI50 [6] was 2.04 µM (inactive). The GI50 [7] was 0.207 µM (active), the GI50 [8] was 1.35 µM (inactive) and the GI50 [9] was 3.39 µM (inactive). For the same compound, the GI50 [56] was 1.87 µM (inactive), the GI50 [10] was 1.97 µM (inactive) and the GI50 [11] was 0.692 µM (active). The GI50 [12] was 1.53 µM, the GI50 [13] was 2.59 µM (inactive) and the GI50 [14] was 4.06 µM (inactive). The GI50 [15] was 0.776 µM (active), the GI50 [16] was 0.82 µM (active) and the GI50 [17] was 3.04 µM (inactive). The GI50 [18] was 0.345 µM (active), the GI50 [19] was 0.231 µM (active) and the GI50 [20] was 1.63 µM (inactive). The GI50 [21] was 1.69 µM (inactive), the GI50 [22] was 4.84 µM (inactive) and the GI50 [23] was 0.743 µM (active). For the same compound, the GI50 [24] was 2.56 µM (inactive), the GI50 [25] was 2.86 µM (inactive) and the GI50 [26] was 3.68 µM (inactive). For the same compound, the GI50 [27] was 0.0294 µM (active), the GI50 [57] was 4.12 µM (inactive) and the GI50 [28] was 2.38 µM (inactive). The GI50 [29] was 2.3 µM (inactive), the GI50 [30] was 0.586 µM (active) and the GI50 [59] was 1.07 µM (active). For the same compound, the GI50 [31] was 9.93 µM (inactive), the GI50 [32] was 5.05 µM (inactive) and the GI50 [33] was 5.69 µM (inactive). The GI50 [34] was 8.47 µM (inactive), the GI50 [35] was 1.91 µM (inactive) and the GI50 [36] was 1.79 µM (inactive). The GI50 [37] was 0.251 µM (active), the GI50 [39] was 1.13 µM (inactive) and the GI50 [40] was 1.02 µM (active). For the same compound, the GI50 [41] was 0.473 µM (active), the GI50 [42] was 6.61 µM (inactive) and the GI50 [43] was 2.56 µM (inactive). The GI50 [44] was 3.47 µM (inactive), the GI50 [45] was 3.45 µM (inactive) and the GI50 [46] was 1.47 µM (inactive). For the same compound, the GI50 [47] was 2.94 µM (inactive), the GI50 [58] was 2.13 µM (inactive) and the GI50 [48] was 0.0776 µM (active). The GI50 [49] was 0.378 µM (active), the GI50 [50] was 9.68 µM (inactive) and the GI50 [51] was 4.86 µM (inactive). For the same compound, the GI50 [52] was 1.11 µM (active), the GI50 [53] was 4.07 µM (inactive) and the GI50 [54] was 3.47 µM (inactive). For the same compound, the GI50 [55] was 4.94 µM (inactive).
